# Results taken from patent publication US20120015399A1, “FLUORESCENT SOLVATOCHROMIC PIGMENT” (National University Corporation Hokkaido University, priority 2009, published 2012).
# Experiments:
# [1] = Absorption spectra of thiophene derivatives in solvents of different polarity; format: physicochemical; conditions: for Molar absorption coefficient: at maximum absorption wavelength
# Method: (§1) In the present Example, the thiophene derivatives (Compounds 3 to 6) obtained in Synthesis Examples 1 and 2 were dissolved in a variety of solvents with different polarity, and the absorption and the fluorescent spectra were measured.
# Now, the solvent polarity ET(30) (kcal/mole) was obtained by dissolving the betaine dye of the following formula that is a light absorbing solvatochromic dye in each solvent and incorporating the maximum absorption wavelength, λ (nm), into the equation ET(30)=28591/λ.
# The thiophene derivative solutions were prepared by using a standard solvent for spectral measurement (Wako Pure Chemical Industries, Ltd.) in concentrations of from […] to 1.2×10^−5M, and absorptions were measured with a visible/ultraviolet spectrophotometer (V-560 UV/VIS Spectrophotometer manufactured by JASCO Corporation). The maximum absorption wavelength (nm) is shown in Table 2, and the molar absorption coefficient (mol^−1cm^−1) at the maximum absorption wavelength is shown in Table 3. The numbers in the tables indicate compound numbers.
# [2] = Fluorescence spectra of thiophene derivatives in solvents of different polarity; format: physicochemical
# Method: as §1
# Next, fluorescence spectra of the thiophene derivatives were measured. The fluorescence spectra were measured using the same samples used for the absorption spectra and using a fluorescence spectrophotometer (F-4500 manufactured by Hitachi Ltd.)
# The numbers in the table indicate compound numbers.
# [3] = Fluorescence colour in aqueous synthetic detergent solutions of different pH; format: physicochemical; conditions: blue light 450 nm
# Method: In the present Example, Compound 6 was dissolved in aqueous synthetic detergent solutions having different pH values and the fluorescence was measured.
# Compound 6 (0.1 g each) obtained in Synthesis Example 2 was placed in three test tubes, and 10 ml each of deionized water and one drop of weakly acidic “Biore” (liquid detergent of Kao Corporation), “COOP K Soft” (liquid detergent of Cope Green K.K.) or “My Pet” (liquid detergent of Kao Corporation) were added. Aqueous solutions of Compound 6 were obtained by dissolving the compound using ultrasonic irradiation. The solutions were irradiated with blue light (450 nm) using a full color LED flash light (MFL 143-FB manufactured by Anteya Technology Corporation). The fluorescent color observed was orange in a weakly acidic environment (pH=5), red in a neutral environment […] and crimson in a weakly alkaline environment (pH=8).
# [4] = test system: human colon cancer cell T84; assay: Staining of cultured cells, confocal laser fluorescence microscopy; format: cell-based
# Method: In the present Example, Compound 7 was introduced into cultured human colon cancer cell T84 and its image was observed using a fluorescence microscope.
# Human colon cancer cell T84 culture (cell stock-microbial stock-gene bank (ATCC) number CCL-248, supplied by Summit Pharmaceuticals International Corporation) in a sub-confluent state that had been cultured (37° C., 5% CO2) for two to four days in a glass bottom dish (35 mm, Matsunami Glass Ind., Ltd.) was washed with phosphoric acid buffered physiological saline solution. One hundred microliters of a DMSO solution of 2×10^−5 M of Compound 7 was added dropwise near the cells, and a reaction was allowed to occur for five minutes at room temperature. The cells were washed again using phosphoric acid buffered physiological saline solution and were immediately exposed to an argon laser (488 nm) to reach an excited state in the phosphoric acid buffered physiological saline solution. The response was observed using a confocal laser microscope (LSM510META manufactured by Carl Zeiss).
# In the present Comparative Example, the compound shown below described in Reference 3 (Japanese Patent Application Public Disclosure No. 2008-291210) was used in place of Compound 7, and the fluorescence microscope images of the cultured human colon cancer cell T84 were examined in the manner described in Example 5.
# [5] = Fluorescence emission in water in the presence of additives (lecithin, β-cyclodextrin, Triton X-100, CTAB, SDS); format: physicochemical; conditions: additives in deionized water, excitation 488 nm, FIG. 5
# Method: After adding 5 milliliters of deionized water, the mixtures were sonicated with ultrasound for 20 seconds. The supernatant solution was irradiated with light at 488 nm, and the light emitted was measured using a fluorescence spectrophotometer (F-4500). […] After adding 5 milliliters of deionized water, the mixtures were sonicated with ultrasound for 20 seconds. The supernatant solution was irradiated with light at 450 nm, and the light emitted was measured using a fluorescence spectrophotometer (F-4500).
# [6] = test system: human fetus kidney-derived HEK293 cells; assay: Staining of HEK293 cells, location of dye and emitted light wavelength; format: cell-based; conditions: stain solution in calf serum/D-MEM 1:9, fifteen minutes, 37° C., argon laser 488 nm, FIG. 10
# Method: In the present Example, human fetus kidney-derived HEK293 cells were stained using Compound 10, and the location of the dye and emitted light wavelength were examined.
# Several micrograms of Compound 10 was added to 10 milliliters of a liquid medium obtained by mixing calf serum and D-MEM base medium in a 1:9 ratio. The mixture was left standing in a refrigerator overnight to dissolve the solids. 5 milliliters of the supernatant solution was removed the next day and was used as a cell staining solution after filtering the solution through a sterilizing membrane filter with a pore diameter of […]
# The human fetus kidney-derived cells HEK293 (Riken Cell Bank) were cultured in a five milliliter culture flask using a liquid culture obtained by mixing calf serum and D-MEM base medium in a 1:9 ratio. The solution was used to inoculate a glass bottom dish.
# The medium was removed from the glass bottom dish on which the HEK293 cells were supported, and 0.2 ml of the stain solution was added. The cells were stained by leaving the dish standing for fifteen minutes in a CO2 incubator at 37° C. The stain solution was subsequently removed, and the medium was exchanged three times using a liquid medium obtained by mixing calf serum and D-MEM base medium in a 1:9 ratio.
# [7] = test system: macrophage cells (RAW264); assay: Staining of macrophage cells, confocal laser fluorescence microscopy; format: cell-based; conditions: stain solution in calf serum/D-MEM 1:9, fifteen minutes, 37° C., argon laser 488 nm, FIG. 9
# Method: In the present Example, macrophage cells were stained using the pyridinium derivatives shown in Table 1 and the differences in cell staining were compared in order to investigate the effects of the alkyl chain lengths in R^7 and R^8.
# Several micrograms of each pyridinium derivative (Compounds 10 and 21 to 23) were added to 10 milliliters of a liquid medium obtained by mixing calf serum and D-MEM base medium in a 1:9 ratio. The mixtures were left standing in a refrigerator overnight to dissolve the solids. 5 milliliters of the supernatant solutions were removed the next day and were used as cell staining solutions after filtering the solutions through sterilizing membrane filters with a pore diameter of […] p.m.
# The macrophage cells (RAW264 of ATCC Co., Ltd.) were floated in HydroCell dishes manufactured by Cell Seed Co., Ltd. using a liquid culture obtained by mixing calf serum and D-MEM base medium in a 1:9 ratio.
# The media were removed from the glass bottom dishes on which the RAW264 cells were supported, and 0.2 ml of each stain solution was added. The cells were stained by leaving the dish standing for fifteen minutes in a CO2 incubator at 37° C. The stain solutions were subsequently removed, and the media were exchanged three times using a liquid medium obtained by mixing calf serum and D-MEM base medium in 1:9 ratio. […] The results are shown in terms of fluorescence microscopic images (FIG. 9).
# [8] = 1,4-Dioxane, solvent polarity ET(30) 36.0
# [9] = Acetone, solvent polarity ET(30) 42.2
# [10] = DMSO, solvent polarity ET(30) 45.1
# [11] = Comparative Example 1, blue diode laser 405 nm, FIG. 11
"Maximum absorption wavelength [1, 8] [nm]","Maximum absorption wavelength [1, 9] [nm]","Maximum absorption wavelength [1, 10] [nm]","Molar absorption coefficient ([1]; 1,4-Dioxane, ET(30) 36.0)","Molar absorption coefficient ([1]; Acetone, ET(30) 42.2)","Molar absorption coefficient ([1]; DMSO, ET(30) 45.1)","Maximum fluorescence emission wavelength ([2]; 1,4-Dioxane, ET(30) 36.0) [nm]","Maximum fluorescence emission wavelength ([2]; Acetone, ET(30) 42.2) [nm]","Maximum fluorescence emission wavelength ([2]; DMSO, ET(30) 45.1) [nm]",Compound,Cell staining pattern [7],also measured
389,391,401,"31,000 mol^−1cm^−1","33,000 mol^−1cm^−1","32,000 mol^−1cm^−1",467,507,522,"CCCCCCN(CCCCCC)c1ccc(-c2ccc(-c3ccncc3)s2)cc1 [Compound 3, N,N-dihexyl-4-[5-(pyridine-4-yl)thiophene-2-yl]aniline]",,
387,385,395,"33,000 mol^−1cm^−1","33,000 mol^−1cm^−1","31,000 mol^−1cm^−1",459,488,507,"CCCCCCN(CCCCCC)c1ccc(-c2ccc(-c3ccccn3)s2)cc1 [Compound 4, N,N-dihexyl-4-[5-(pyridine-2-yl)thiophene-2-yl]aniline]",,
395,395,406,"33,000 mol^−1cm^−1","33,000 mol^−1cm^−1","31,000 mol^−1cm^−1",472,507,522,"CCCCCCN(CCCCCC)c1ccc(-c2ccc(-c3ncccn3)s2)cc1 [Compound 5, N,N-dihexyl-4-[5-(pyrimidine-2-yl)thiophene-2-yl]aniline]",,
490,501,497,"26,000 mol^−1cm^−1","36,000 mol^−1cm^−1","36,000 mol^−1cm^−1",568,639,653,"CCCCCCN(CCCCCC)c1ccc(-c2ccc(-c3cc[n+](C)cc3)s2)cc1.[I-] [Compound 6, 4-[5-(4-dihexylamino)phenyl]thiophene-2-yl-1-methylpyridinium iodide]",,"Excitation by commonly encountered argon lasers (488 nm) [1]: could be efficiently excited; Fluorescent color observed ([3]; neutral environment (pH=6)): red; Fluorescent color observed ([3]; weakly acidic environment (pH=5)): orange; Fluorescent color observed ([3]; weakly alkaline environment (pH=8)): crimson; Absorption and emission wavelengths, compared ([2]; versus Compounds 3 to 5): significantly longer absorption and emission wavelengths than Compounds 3 to 5"
,,,,,,,,,"CCCCCCN(CCCCCC)c1ccc(-c2ccc(-c3cc[n+](C)cc3)s2)cc1.F[B-](F)(F)F [Compound 7, 4-[5-(4-dihexylamino)phenyl]thiophene-2-yl-1-methylpyridinium tetrafluoroborate]",,"Cell staining ([4]; 2×10^−5 M in DMSO, five minutes, room temperature, argon laser 488 nm, FIG. 7): cell membranes of colon cancer cells T84 are stained; Laser caused fading ([4]; confocal laser microscope, conditions of the experiment): did not undergo laser caused fading"
,,,,,,,,,"CCCCCCN(CCCCCC)c1ccc(-c2ccc(-c3cc[n+](C)cc3)s2)cc1.O=S(=O)([O-])C(F)(F)F [Compound 10, {4-[5-(4-dihexylamino)phenyl]thiophene-2-yl}-1-methylpyridinium trifluoromethane sulfonate]",the cell membrane and mitochondria were selectively stained,Fluorescence wavelength response to local environment [5]: respond sensitively to the local environment in terms of fluorescence wavelength; Emitted light color by location in cell [6]: different for the cell membrane (1 in the figure) and mitochondria
,,,,,,,,,CCN(CC)c1ccc(-c2ccc(-c3cc[n+](C)cc3)s2)cc1.O=S(=O)([O-])C(F)(F)F [Compound 21],Entire cells were stained with fluorescence,
,,,,,,,,,"CCCCN(CCCC)c1ccc(-c2ccc(-c3cc[n+](C)cc3)s2)cc1.O=S(=O)([O-])C(F)(F)F [Compound 22, 4-[5-(4-dibutylamino)phenyl]thiophene-2-O-1-methylpyridinium trifluoromethane sulfonate]",the cell membrane and mitochondria were selectively stained,
,,,,,,,,,CCCCCCCCN(CCCCCCCC)c1ccc(-c2ccc(-c3cc[n+](C)cc3)s2)cc1.O=S(=O)([O-])C(F)(F)F [Compound 23],the entire cell was stained with fluorescence but the fluorescence intensity was low and the stain was not even,
,,,,,,,,,CN(C)c1ccc(-c2ccc(-c3ccc(S(=O)(=O)OCC(C)(C)C)cc3)s2)cc1 [reference compound],,"Cell staining [4, 11]: the cell membrane was selectively labeled with fluorescence; Change of fluorescence wavelength between cell sections [4, 11]: remained almost unchanged"
